Reference: PubChem BioAssay AID330 (DTP/NCI, 2004)
“And” between values parts separate entries of the source, which are not always exact repeats. Equal values may be shown once. Inconclusive results and toxic doses are left out.

System: P388 leukemia ip, CD2F1 mice, survival T/C
Test: NCI In Vivo Anticancer Drug Screen. Data for tumor model P388 Leukemia (intraperitoneal) in CD2F1 (CDF1) mice
Conditions: endpoint: median survival time, higher = longer survival
Outline: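 Mice carrying the transplanted tumor received test compound or vehicle. Survival was recorded in each group, and the value is the treated-group measurement divided by that of the vehicle-treated control group.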

COc1cc2c[n+](C)c3c4cc5c(cc4ccc3c2cc1OC)OCO5
T/C (dose: 0.5 mg/kg/injection, schedule: Q01DX005 (ip), vehicle: saline): 106 % of control | T/C (dose: 1.0 mg/kg/injection, schedule: Q01DX005 (ip), vehicle: saline): 118 % of control | T/C (dose: 1.25 mg/kg/injection, schedule: Q01DX009 (ip), vehicle: DMSO): 124 % of control | T/C (dose: 2.0 mg/kg/injection, schedule: Q01DX005 (ip), vehicle: saline): 115 % of control | T/C (dose: 2.0 mg/kg/injection, schedule: Q03HX008 (ip), vehicle: water): 109 % of control | T/C (dose: 2.0 mg/kg/injection, schedule: Q03HX016 (ip), vehicle: water): 121 % of control | T/C (dose: 2.0 mg/kg/injection, schedule: Q03HX024 (ip), vehicle: saline with Tween-80): 150 % of control | T/C (dose: 4.0 mg/kg/injection, schedule: Q01DX009 (ip), vehicle: saline): 152 % of control | T/C (dose: 4.0 mg/kg/injection, schedule: Q01DX009 (sc), vehicle: water): 97 % of control | T/C (dose: 4.0 mg/kg/injection, schedule: Q03HX008 (ip), vehicle: water): 114 % of control | T/C (dose: 4.0 mg/kg/injection, schedule: Q03HX016 (ip), vehicle: water): 119 % of control | T/C (dose: 5.0 mg/kg/injection, schedule: Q01DX009 (ip), vehicle: DMSO): 153 % of control | T/C (dose: 8.0 mg/kg/injection, schedule: Q01DX009 (ip), vehicle: saline with Tween-80): 166 % of control | T/C (dose: 8.0 mg/kg/injection, schedule: Q01DX009 (ip), vehicle: saline): 152 % of control | T/C (dose: 8.0 mg/kg/injection, schedule: Q01DX009 (oral), vehicle: water): 102 % of control | T/C (dose: 8.0 mg/kg/injection, schedule: Q01DX009 (sc), vehicle: saline with Tween-80): 96 % of control | T/C (dose: 8.0 mg/kg/injection, schedule: Q01DX009 (sc), vehicle: water): 97 % of control | T/C (dose: 8.0 mg/kg/injection, schedule: Q03HX008 (ip), vehicle: water): 87 % of control | T/C (dose: 8.0 mg/kg/injection, schedule: Q03HX016 (ip), vehicle: saline with Tween-80): 153 % of control | T/C (dose: 8.0 mg/kg/injection, schedule: Q03HX016 (ip), vehicle: water): 92 % of control | T/C (dose: 8.0 mg/kg/injection, schedule: Q03HX024 (ip), vehicle: saline with Tween-80): 165 % of control | T/C (dose: 8.0 mg/kg/injection, schedule: Q04DX003 (ip), vehicle: water): 113 % of control | T/C (dose: 10.0 mg/kg/injection, schedule: Q01DX009 (ip), vehicle: DMSO): 153 % of control and 155 % of control | T/C (dose: 16.0 mg/kg/injection, schedule: Q01DX001 (ip), vehicle: water): 106 % of control | T/C (dose: 16.0 mg/kg/injection, schedule: Q01DX001 (oral), vehicle: water): 103 % of control | T/C (dose: 16.0 mg/kg/injection, schedule: Q01DX001 (sc), vehicle: water): 98 % of control | T/C (dose: 16.0 mg/kg/injection, schedule: Q01DX009 (ip), vehicle: saline with Tween-80): 157 % of control | T/C (dose: 16.0 mg/kg/injection, schedule: Q01DX009 (ip), vehicle: saline): 171 % of control | T/C (dose: 16.0 mg/kg/injection, schedule: Q01DX009 (oral), vehicle: water): 94 % of control | T/C (dose: 16.0 mg/kg/injection, schedule: Q01DX009 (sc), vehicle: saline with Tween-80): 97 % of control | T/C (dose: 16.0 mg/kg/injection, schedule: Q03HX008 (ip), vehicle: saline with Tween-80): 167 % of control | T/C (dose: 16.0 mg/kg/injection, schedule: Q04DX003 (ip), vehicle: water): 119 % of control | T/C (dose: 16.0 mg/kg/injection, schedule: Q08DX002 (ip), vehicle: water): 112 % of control | T/C (dose: 20.0 mg/kg/injection, schedule: Q01DX009 (ip), vehicle: DMSO): 155 % of control and 163 % of control and 190 % of control | T/C (dose: 20.0 mg/kg/injection, schedule: Q01DX009 (ip), vehicle: saline): 191 % of control | T/C (dose: 25.0 mg/kg/injection, schedule: Q01DX009 (ip), vehicle: saline with Tween-80): 114 % of control | T/C (dose: 25.0 mg/kg/injection, schedule: Q01DX009 (ip), vehicle: water): 100 % of control and 87 % of control | T/C (dose: 32.0 mg/kg/injection, schedule: Q01DX001 (ip), vehicle: water): 102 % of control | T/C (dose: 32.0 mg/kg/injection, schedule: Q01DX001 (oral), vehicle: water): 103 % of control | T/C (dose: 32.0 mg/kg/injection, schedule: Q01DX001 (sc), vehicle: saline with Tween-80): 100 % of control | T/C (dose: 32.0 mg/kg/injection, schedule: Q01DX001 (sc), vehicle: water): 101 % of control | T/C (dose: 32.0 mg/kg/injection, schedule: Q01DX005 (ip), vehicle: saline): 168 % of control | T/C (dose: 32.0 mg/kg/injection, schedule: Q01DX009 (ip), vehicle: saline with Tween-80): 100 % of control | T/C (dose: 32.0 mg/kg/injection, schedule: Q01DX009 (ip), vehicle: water): 185 % of control | T/C (dose: 32.0 mg/kg/injection, schedule: Q01DX009 (oral), vehicle: saline with Tween-80): 107 % of control | T/C (dose: 32.0 mg/kg/injection, schedule: Q01DX009 (oral), vehicle: water): 93 % of control | T/C (dose: 32.0 mg/kg/injection, schedule: Q01DX009 (sc), vehicle: saline with Tween-80): 92 % of control | T/C (dose: 32.0 mg/kg/injection, schedule: Q03HX008 (ip), vehicle: saline with Tween-80): 161 % of control | T/C (dose: 32.0 mg/kg/injection, schedule: Q03HX016 (ip), vehicle: saline with Tween-80): 100 % of control | T/C (dose: 32.0 mg/kg/injection, schedule: Q04DX003 (ip), vehicle: other): 154 % of control | T/C (dose: 32.0 mg/kg/injection, schedule: Q04DX003 (ip), vehicle: water): 119 % of control | T/C (dose: 32.0 mg/kg/injection, schedule: Q08DX002 (ip), vehicle: water): 113 % of control | T/C (dose: 40.0 mg/kg/injection, schedule: Q01DX009 (ip), vehicle: saline): 105 % of control and 96 % of control | T/C (dose: 64.0 mg/kg/injection, schedule: Q01DX001 (ip), vehicle: water): 117 % of control | T/C (dose: 64.0 mg/kg/injection, schedule: Q01DX001 (oral), vehicle: water): 102 % of control | T/C (dose: 64.0 mg/kg/injection, schedule: Q01DX001 (sc), vehicle: saline with Tween-80): 98 % of control | T/C (dose: 64.0 mg/kg/injection, schedule: Q01DX001 (sc), vehicle: water): 95 % of control | T/C (dose: 64.0 mg/kg/injection, schedule: Q01DX009 (oral), vehicle: saline with Tween-80): 100 % of control | T/C (dose: 64.0 mg/kg/injection, schedule: Q01DX009 (oral), vehicle: water): 101 % of control | T/C (dose: 64.0 mg/kg/injection, schedule: Q01DX009 (sc), vehicle: saline with Tween-80): 87 % of control | T/C (dose: 64.0 mg/kg/injection, schedule: Q04DX003 (ip), vehicle: other): 150 % of control and 181 % of control | T/C (dose: 64.0 mg/kg/injection, schedule: Q04DX003 (ip), vehicle: saline with Tween-80): 151 % of control | T/C (dose: 64.0 mg/kg/injection, schedule: Q08DX002 (ip), vehicle: water): 115 % of control | T/C (dose: 100.0 mg/kg/injection, schedule: Q04DX002 (ip), vehicle: Klucel (hydroxypropylcellulose) (HPC)): 154 % of control | T/C (dose: 120.0 mg/kg/injection, schedule: Q04DX003 (ip), vehicle: distilled water + Tween-80): 99 % of control | T/C (dose: 128.0 mg/kg/injection, schedule: Q01DX001 (oral), vehicle: water): 95 % of control | T/C (dose: 128.0 mg/kg/injection, schedule: Q01DX001 (sc), vehicle: saline with Tween-80): 97 % of control | T/C (dose: 128.0 mg/kg/injection, schedule: Q01DX009 (oral), vehicle: saline with Tween-80): 100 % of control | T/C (dose: 128.0 mg/kg/injection, schedule: Q01DX009 (oral), vehicle: water): 103 % of control | T/C (dose: 128.0 mg/kg/injection, schedule: Q01DX009 (sc), vehicle: saline with Tween-80): 88 % of control | T/C (dose: 128.0 mg/kg/injection, schedule: Q04DX003 (ip), vehicle: other): 107 % of control | T/C (dose: 128.0 mg/kg/injection, schedule: Q04DX003 (ip), vehicle: saline with Tween-80): 166 % of control | T/C (dose: 128.0 mg/kg/injection, schedule: Q08DX002 (ip), vehicle: saline with Tween-80): 155 % of control | T/C (dose: 200.0 mg/kg/injection, schedule: Q04DX002 (ip), vehicle: Klucel (hydroxypropylcellulose) (HPC)): 105 % of control and 122 % of control | T/C (dose: 256.0 mg/kg/injection, schedule: Q01DX001 (ip), vehicle: saline with Tween-80): 161 % of control | T/C (dose: 256.0 mg/kg/injection, schedule: Q01DX001 (oral), vehicle: saline with Tween-80): 104 % of control | T/C (dose: 256.0 mg/kg/injection, schedule: Q01DX001 (sc), vehicle: saline with Tween-80): 106 % of control | T/C (dose: 256.0 mg/kg/injection, schedule: Q01DX009 (oral), vehicle: saline with Tween-80): 100 % of control | T/C (dose: 256.0 mg/kg/injection, schedule: Q08DX002 (ip), vehicle: saline with Tween-80): 160 % of control | T/C (dose: 400.0 mg/kg/injection, schedule: Q04DX002 (ip), vehicle: Klucel (hydroxypropylcellulose) (HPC)): 87 % of control | T/C (dose: 512.0 mg/kg/injection, schedule: Q01DX001 (oral), vehicle: saline with Tween-80): 106 % of control | T/C (dose: 512.0 mg/kg/injection, schedule: Q01DX001 (sc), vehicle: saline with Tween-80): 97 % of control | T/C (dose: 512.0 mg/kg/injection, schedule: Q01DX009 (oral), vehicle: saline with Tween-80): 97 % of control | T/C (dose: 1024.0 mg/kg/injection, schedule: Q01DX001 (oral), vehicle: saline with Tween-80): 100 % of control | T/C (dose: 2048.0 mg/kg/injection, schedule: Q01DX001 (oral), vehicle: saline with Tween-80): 102 % of control
